Measurements taken from ChEMBL document CHEMBL1154289, “Structure based design of novel irreversible FAAH inhibitors” (Bioorg Med Chem Lett, 2009).
Activity calls are given as the source filed them. The calls are words filed in the database; no cut-off is given here.

Key:
[1] = Bioavailability in rat; assay type: ADME, organism-based; details: in vivo
[2] = target: T1, Fatty-acid amide hydrolase 1 (Rattus norvegicus) (UniProt P97612); assay: Inhibition of rat FAAH assessed as ratio of Kinact to Ki
T1 sequence (whole entry): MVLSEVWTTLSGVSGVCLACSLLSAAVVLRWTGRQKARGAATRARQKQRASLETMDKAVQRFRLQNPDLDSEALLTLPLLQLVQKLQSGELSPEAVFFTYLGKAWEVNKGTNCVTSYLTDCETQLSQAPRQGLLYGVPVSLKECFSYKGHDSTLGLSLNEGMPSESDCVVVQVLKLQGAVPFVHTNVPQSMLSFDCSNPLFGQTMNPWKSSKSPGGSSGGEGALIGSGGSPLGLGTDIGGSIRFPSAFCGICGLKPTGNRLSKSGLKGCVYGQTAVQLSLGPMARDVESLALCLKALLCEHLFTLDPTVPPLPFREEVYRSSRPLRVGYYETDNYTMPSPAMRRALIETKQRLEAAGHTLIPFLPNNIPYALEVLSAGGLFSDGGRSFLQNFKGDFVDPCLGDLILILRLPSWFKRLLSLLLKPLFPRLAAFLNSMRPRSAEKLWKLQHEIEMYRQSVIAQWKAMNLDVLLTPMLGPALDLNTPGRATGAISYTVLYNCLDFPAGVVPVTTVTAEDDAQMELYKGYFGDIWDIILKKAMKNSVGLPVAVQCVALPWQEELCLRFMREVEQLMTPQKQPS

[3] = target: T2, Fatty-acid amide hydrolase 1 (Homo sapiens) (UniProt O00519); assay: Inhibition of human FAAH assessed as ratio of Kinact to Ki
T2 sequence (whole entry): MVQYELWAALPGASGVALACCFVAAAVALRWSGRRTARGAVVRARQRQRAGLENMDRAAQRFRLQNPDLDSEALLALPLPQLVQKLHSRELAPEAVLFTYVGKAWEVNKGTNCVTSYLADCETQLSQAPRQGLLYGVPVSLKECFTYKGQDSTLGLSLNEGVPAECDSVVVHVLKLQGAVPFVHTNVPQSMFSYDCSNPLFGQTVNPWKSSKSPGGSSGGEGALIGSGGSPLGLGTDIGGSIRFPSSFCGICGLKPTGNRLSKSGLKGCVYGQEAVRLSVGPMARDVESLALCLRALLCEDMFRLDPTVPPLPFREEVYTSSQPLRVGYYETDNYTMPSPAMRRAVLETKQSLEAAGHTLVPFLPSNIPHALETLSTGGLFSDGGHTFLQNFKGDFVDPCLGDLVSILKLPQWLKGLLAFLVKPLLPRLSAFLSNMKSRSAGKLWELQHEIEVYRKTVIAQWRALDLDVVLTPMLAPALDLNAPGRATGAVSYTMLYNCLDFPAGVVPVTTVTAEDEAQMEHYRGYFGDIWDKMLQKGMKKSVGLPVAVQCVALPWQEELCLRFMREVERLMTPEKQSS

Row | bioavailability [1] [%] | Ratio [2] | Ratio [3] [M⁻¹ s⁻¹] | Compound
1 | 73 | 5390 M⁻¹ s⁻¹ | 9000 | O=C(Nc1cccnc1)N1CC(/C=C\Cc2cccc(Oc3ccc(C(F)(F)F)cn3)c2)C1
2 |  | 5160 M⁻¹ s⁻¹ | 881 | O=C(Nc1cncc2[nH]ccc12)N1CC(CCCc2cccc(Oc3ccc(C(F)(F)F)cn3)c2)C1
3 |  | 2310 M⁻¹ s⁻¹ | 2100 | O=C(Nc1cccnc1)N1CC(C/C=C/c2cccc(Oc3ccc(C(F)(F)F)cn3)c2)C1
4 | 93 | 2380 M⁻¹ s⁻¹ | 9340 | O=C(Nc1cccnc1)N1CC(/C=C/Cc2cccc(Oc3ccc(C(F)(F)F)cn3)c2)C1
5 |  | inactive | 782 | O=C(Nc1cccnc1)N1CC(C/C=C\c2cccc(Oc3ccc(C(F)(F)F)cn3)c2)C1
6 |  | 688 M⁻¹ s⁻¹ | 1090 | O=C(Nc1cccnc1)N1CC(CCCc2cccc(Oc3ccc(C(F)(F)F)cn3)c2)C1
7 |  | 465 M⁻¹ s⁻¹ | 861 | O=C(Nc1cccnc1)N1CC(C#CCc2cccc(Oc3ccc(C(F)(F)F)cn3)c2)C1
8 |  | 15300 M⁻¹ s⁻¹ | 1450 | Cc1noc(NC(=O)N2CC(CCCc3cccc(Oc4ccc(C(F)(F)F)cn4)c3)C2)c1C
9 |  | 1310 M⁻¹ s⁻¹ | 621 | O=C(Nc1cccnc1)N1CC(=CCCc2cccc(Oc3ccc(C(F)(F)F)cn3)c2)C1
10 |  | 1840 M⁻¹ s⁻¹ | 3030 | O=C(Nc1cccnn1)N1CC(CCCc2cccc(Oc3ccc(C(F)(F)F)cn3)c2)C1
